In US20220017468A1, “ISOQUINOLINE COMPOUNDS AND THEIR USE IN TREATING AhR IMBALANCE” (Dermavant Sciences GmbH, priority 2020, published 2022):
“And” between values parts separate entries of the source, which are not always exact repeats. Equal values may be shown once. Read-outs that look alike come from different tables or passages of the source.

Experiments:
[1] = pharmacokinetics after a single intravenous dose, minipig; type: in vivo; conditions: plasma, 1 mg/kg intravenous, mean
Excerpt: Bioavailability was 46.5% and 41.0% for 30% Captisol and 30% Cavitron, respectively. 30% Captisol formulation was selected for the 7-day subcutaneous toxicity study in rat.

[2] = test system: human primary keratinocytes; experiment: keratinocyte viability; type: cell-based; conditions: 48 h, two days
Excerpt: (§1) Points represent percent maximum expression of protein compared to Th17 from six combined donors; 3 biological replicates per treatment. Error bars represent standard error of mean. […] Data are mean±standard error from 3 to 9 experimental data points. […] Error bars represent mean ±standard error of 10-15 biological replicates.

[3] = metabolic stability in liver microsomes, rat; type: in vitro ADME
[4] = metabolic stability in hepatocytes, human; type: in vitro ADME
[5] = metabolic stability in liver microsomes, mouse; type: in vitro ADME
[6] = metabolic stability in hepatocytes, rat; type: in vitro ADME
[7] = test system: AhR pathway (CYP1A1 mRNA); experiment: sRICA ex vivo human skin explant, CYP1A1 induction; type: cell-based; conditions: 1 μM or 10 μM in the baso-lateral media
Excerpt: A liquid-air interface skin explant culture with the in situ activation of immunocompetent cells, termed sRICA for skin-Resident Immune Cell Activation model was previously reported (Smith et al., (2016) PLoS One, 11(2)). In this assay, specific cytokine profiles of inflammatory skin diseases can be induced, including the Th17-type cytokines, IL17A, IL17F and IL22. Reduction of biomarkers in this assay indicates biological activity of the test compound.
Ex vivo human skin obtained from abdominoplasty surgery was processed to remove fat and dermatomed the tissue to ˜750 microns. Dermatomed skin was then cleaned in two serial rinses of 5-10 minutes each in room temperature PBS containing an antibiotic/antimycotic solution.
Skin was treated as asceptic from this point on; all further manipulations were performed in a class II biosafety cabinet. […]
The harvested skin tissue were stored in RNAlater until use. […] RNA was diluted to a concentration of 23.6 ng/ul (total of 100 ng RNA), and was used as template in a 10 uL PCR volume using Applied Biosciences RNA-to-CT 1 Step kit (AB Catalog # 4392938) and the specific TaqMan probes foreach gene to be quantified. […]
RNA levels of gene of interest's Relative Expression was calculated using the Delta Delta CT formula.
RNA was isolated from the tissue harvested at 24 hr and 48 hr post stimulation and gene expression was assessed by quantitative PCR. […]

[8] = plasma protein binding by Rapid Equilibrium Dialysis, minipig; type: in vitro ADME; conditions: minipig, plasma
Excerpt: (§2) The blood-to-plasma ratios were similar across species (1.22-1.36, Table 9).

Minipig Plasma Proteins = experiment: as above; type: in vitro ADME
Excerpt: as §2

[9] = test system: human peripheral blood CD4+ T-cells; experiment: T cell viability; type: cell-based; conditions: 120 h, Th17 polarizing conditions, 5 days
Excerpt: as §1

[10] = metabolic stability in hepatocytes, mouse; type: in vitro ADME

CC(C)c1c(O)cc(-c2cc3ccccc3cn2)cc1O
AUC(0-inf) [1]: 783 ng·h/mL
half-life [1]: 61.2 min
clearance ([1]; read-out: CLp): 21.3 mL/min/kg
Vd ([1]; read-out: Vss): 1.5 L/kg
IC50 [2]: 12.4 µM
CLint, mic ([3]; rat liver microsomes, 0.5 μM): 6.21 mL/min/g liver
CLint scaled at 0.5 μM ([3]; rat liver microsomes, 0.5 μM, read-out: Scaled CLint, mic): 224 mL/min/kg
half-life at 0.5 μM ([3]; rat, microsomes): 10.3 min
half-life at 0.5 μM [4]: 10.4 min
CLint, hep ([4]; 0.5 μM): 15.7 mL/min/g liver
CLint scaled at 0.5 μM ([4]; read-out: Scaled CLint, hep): 384 mL/min/kg
CLint, mic ([5]; mouse liver microsomes, 0.5 μM): 23.4 mL/min/g liver
CLint scaled at 0.5 μM ([5]; mouse liver microsomes, 0.5 μM, read-out: Scaled CLint, mic): 1190 mL/min/kg
half-life at 0.5 μM ([5]; mouse, microsomes): 2.84 min
in vitro-to-in vivo extrapolation (IVIVE) ratio ([6]; rat): 0.45
CLint, hep ([6]; rat hepatocytes, 0.5 μM): 44.4 mL/min/g liver
half-life at 0.5 μM ([6]; rat hepatocytes, 0.5 μM): 3.37 min
CLint scaled at 0.5 μM ([6]; rat hepatocytes, 0.5 μM, read-out: Scaled CLint, hep): 1600 mL/min/kg
AhR pathway activation as measured by cyp1a1 gene induction [7]: confirmed
fraction unbound at 4 h, 2 μM ([8]; read-out: % Unbound Mean (% CV)): 0.0198
fraction unbound at 4 h, 2 μM ([8]; read-out: % Unbound Replicate): 0.0187
fraction unbound at 4 h, 2 μM ([8]; read-out: Mean % Bound (converted)): 0.02
recovery at 4 h, 2 μM (Minipig Plasma Proteins): 95.6%
% Unbound Replicate (Minipig Plasma Proteins; 2 μM): 2.52% and 1.57%
Mean % Stability at 4 hrs (Minipig Plasma Proteins; 2 μM): 107%
IC50 [9]: 5.9 µM
half-life at 0.5 μM [10]: 8.39 min
CLint, hep ([10]; 0.5 μM): 22.3 mL/min/g liver
CLint scaled at 0.5 μM ([10]; read-out: Scaled CLint, hep): 1140 mL/min/kg
